Test results: patent publication US20240000745A1, “COMPOSITIONS AND METHODS USING A COMBINATION OF OLEUROPEIN AND QUERCETIN FOR CELLULAR ENERGY” (SOCIETE DES PRODUITS NESTLE S.A., priority 2020, published 2024)

Test system: HeLa cells
Assay: Mitochondrial calcium elevation in histamine-stimulated HeLa cells (mitochondrially targeted aequorin luminescence)
Assay type: cell-based
Description: To test the effect of oleuropein (or oleuropein aglycone), quercetin and their combination in living cells, the inventors measured mitochondrial calcium elevation in HeLa cells. HeLa cells were purchased from ATCC. HeLa cells were seeded in 96-well plates at a density of 50000 cells per well in minimal essential medium (DMEM, Gibco), high glucose, +10% fetal calf serum.
Mitochondrial calcium measurements were carried out using Hela cells infected with the adenovirus (from Sirion biotech) expressing the mitochondrially targeted calcium sensor mitochondrial mutated aequorin (Montero et al., 2004). For aequorin reconstitution, 24 hours after infection, cells were incubated for 2 h at room temperature (22±° C.) in standard medium (145 mM NaCl, 5 mM KCl, 1 mM MgCl2, 1 mM CaCl2, 10 mM glucose and 10 mM Hepes, pH 7.4) with 1 μM wild-type coelenterazine.
For treatment, compounds were directly added to the cell culture or myotubes cultures 2 hours before measurements. Luminescence was measured at the FLIPR Tetra Aequorin (Molecular Devices). […] Calibration of the luminescence data into calcium concentration was carried out using an algorithm, as described previously (Alvarez & Montero, 2002). Custom module analysis based on Excel (Microsoft) and GhaphPad Prism 7.02 (GraphPad) software was used for quantification.

C/C=C1/C(O)OC=C(C(=O)OC)[C@H]1CC(=O)OCCc1ccc(O)c(O)c1 (mixture of isomers) [oleuropein aglycone]
synergism with quercetin to activate mitochondria via mitochondrial Ca2+ rise (measured effect of the combination vs. theoretical sum of the single effects) (3 μM + 3 μM quercetin, integrated mitochondrial calcium rise evoked by 100 μM histamine, HeLa cells, compounds added 2 hours before measurement, P<0.05): synergizes with quercetin | level of synergism in combination with quercetin, compared between oleuropein and oleuropein aglycone (synergisms calculated as in FIG. 1 and FIG. 2, n=6, NS at P<0.05 (Student's t-test)): same level of synergism
